Experimental findings from patent US20220089592A1, “IMIDAZO[1,2-A]PYRIDINYL DERIVATIVES AS IRAK4 INHIBITORS” (priority 2019, published 2022) are described below.

The structures appear in SMILES notation.

The assay deals with T1, IRAK4 (Homo sapiens, UniProt Q9NWZ3).
T1 sequence (Q9NWZ3 1-460): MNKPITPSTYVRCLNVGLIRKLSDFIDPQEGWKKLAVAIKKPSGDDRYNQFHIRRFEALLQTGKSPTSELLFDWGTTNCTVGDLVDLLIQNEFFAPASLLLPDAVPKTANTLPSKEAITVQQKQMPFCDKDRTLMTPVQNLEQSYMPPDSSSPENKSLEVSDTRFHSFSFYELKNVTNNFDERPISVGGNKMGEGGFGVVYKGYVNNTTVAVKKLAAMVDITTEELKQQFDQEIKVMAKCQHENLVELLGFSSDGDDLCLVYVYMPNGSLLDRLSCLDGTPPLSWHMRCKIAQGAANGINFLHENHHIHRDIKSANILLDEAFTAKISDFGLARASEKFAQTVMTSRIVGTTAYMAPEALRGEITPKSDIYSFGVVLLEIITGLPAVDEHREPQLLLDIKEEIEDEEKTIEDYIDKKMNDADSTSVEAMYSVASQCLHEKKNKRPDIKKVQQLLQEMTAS
Put plainly: 2-hour 1 mM ATP IRAK4 Biochemical assay (as above, but with 100 pM IRAK4 and 1 mM ATP). The note with it: IRAK4 MSD BIOCHEMICAL (1 mM ATP) IC50 (μM), 100 pM IRAK4, 2 hours. The essentials: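 Run with 100 pM IRAK4 and 1 mM ATP for 2 hours, quenched with EDTA pH 8. Phosphorylated biotinylated peptide captured on streptavidin MSD plates and detected with anti-phosphothreonine antibody plus Sulfo-Tag secondary by electrochemiluminescence.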
Turning to `COc1cccc(C(=O)Nc2cn3cc(C45COC(C)(C4)C5)nc3c(F)c2OC(C)C)n1` [Example 426, N-(8-fluoro-7-isopropoxy-2-(1-methyl-2-oxabicyclo[2.1.1]hexan-4-yl)imidazo[1,2-a]pyridin-6-yl)-6-methoxypicolinamide], it took 0.002 µM to reach half-maximal inhibition (IC50).
Compound `COc1c(NC(=O)c2cccc(C(F)F)n2)cn2cc(C3CCOCC3)nc2c1C` [Example 427, 6-(difluoromethyl)-N-(7-methoxy-8-methyl-2-(tetrahydro-2H-pyran-4-yl)imidazo[1,2-a]pyridin-6-yl)picolinamide] came in with an IC50 of 0.003 µM.
`COc1ncccc1C(=O)Nc1cn2cc(C34COC(C)(C3)C4)nc2c(F)c1OC(C)C` [Example 428, N-(8-fluoro-7-isopropoxy-2-(1-methyl-2-oxabicyclo[2.1.1]hexan-4-yl)imidazo[1,2-a]pyridin-6-yl)-2-methoxynicotinamide] had a half-inhibitory concentration (IC50) of 0.01 µM.
For the compound `CC(C)Oc1c(NC(=O)c2cccc(OCC(F)F)n2)cn2cc(C34COC(C)(C3)C4)nc2c1F` [Example 429, 6-(2,2-difluoroethoxy)-N-(8-fluoro-7-isopropoxy-2-(1-methyl-2-oxabicyclo[2.1.1]hexan-4-yl)imidazo[1,2-a]pyridin-6-yl)picolinamide 2,2,2-trifluoroacetate], the IC50 is 0.006 µM. This IC50 lies about 1.7-fold lower than the previous one.
With `CC(C)Oc1c(NC(=O)c2coc(C(F)F)n2)cn2cc(C34COC(C)(C3)C4)nc2c1F` [Example 430, 2-(difluoromethyl)-N-(8-fluoro-7-isopropoxy-2-(1-methyl-2-oxabicyclo[2.1.1]hexan-4-yl)imidazo[1,2-a]pyridin-6-yl)oxazole-4-carboxamide 2,2,2-trifluoroacetate], half-maximal inhibition (IC50) required 0.008 µM.
`CC(C)Oc1c(NC(=O)c2coc(C3CC3)n2)cn2cc(C34COC(C)(C3)C4)nc2c1F` [Example 431, 2-cyclopropyl-N-(8-fluoro-7-isopropoxy-2-(1-methyl-2-oxabicyclo[2.1.1]hexan-4-yl)imidazo[1,2-a]pyridin-6-yl)oxazole-4-carboxamide] had a 50% inhibitory concentration (IC50) of 0.001 µM. This IC50 lies about 8-fold lower than the previous one.
Regarding `CC(C)Oc1c(NC(=O)c2ccn(C)n2)cn2cc(C34COC(C)(C3)C4)nc2c1F` [Example 432, N-(8-fluoro-7-isopropoxy-2-(1-methyl-2-oxabicyclo[2.1.1]hexan-4-yl)imidazo[1,2-a]pyridin-6-yl)-1-methyl-1H-pyrazole-3-carboxamide 2,2,2-trifluoroacetate], 0.005 µM corresponded to half-maximal inhibition (IC50). Against the preceding compound, the IC50 is about 5-fold higher.
In the case of `CC(C)Oc1c(NC(=O)c2ccnc3ccnn23)cn2cc(C34COC(C)(C3)C4)nc2c1F` [Example 433, N-(8-fluoro-7-isopropoxy-2-(1-methyl-2-oxabicyclo[2.1.1]hexan-4-yl)imidazo[1,2-a]pyridin-6-yl)pyrazolo[1,5-a]pyrimidine-7-carboxamide], the half-maximal inhibitory concentration (IC50) is 0.013 µM. This IC50 is about 2.6-fold higher than that of the compound before.
Regarding `CC(C)Oc1c(NC(=O)c2cccc3ncnn23)cn2cc(C34COC(C)(C3)C4)nc2c1F` [Example 434, N-(8-fluoro-7-isopropoxy-2-(1-methyl-2-oxabicyclo[2.1.1]hexan-4-yl)imidazo[1,2-a]pyridin-6-yl)-[1,2,4]triazolo[1,5-a]pyridine-5-carboxamide], the IC50 was 0.004 µM.
Consider `COc1ncccc1C(=O)Nc1cn2cc(C34CCC(C)(C3)OC4)nc2c(F)c1OC(C)C` (stereo not shown) [Example 435, N-(8-fluoro-7-isopropoxy-2-(1-methyl-2-oxabicyclo[2.2.1]heptan-4-yl)imidazo[1,2-a]pyridin-6-yl)-2-methoxynicotinamide 2,2,2-trifluoroacetate], for which the IC50 worked out at 0.012 µM.
`COc1ncccc1C(=O)Nc1cn2cc(C34COC(C)(C3)C4)nc2c(F)c1OC1CCC1` [Example 436, N-(7-cyclobutoxy-8-fluoro-2-(1-methyl-2-oxabicyclo[2.1.1]hexan-4-yl)imidazo[1,2-a]pyridin-6-yl)-2-methoxynicotinamide 2,2,2-trifluoroacetate] showed an IC50 of 0.029 µM.
Consider `Cn1ccc(C(=O)Nc2cn3cc(C45COC(C)(C4)C5)nc3c(F)c2OC2CCCC2)n1` [Example 437, N-(7-(cyclopentyloxy)-8-fluoro-2-(1-methyl-2-oxabicyclo[2.1.1]hexan-4-yl)imidazo[1,2-a]pyridin-6-yl)-1-methyl-1H-pyrazole-3-carboxamide 2,2,2-trifluoroacetate], for which half-maximal inhibition (IC50) was put at 0.004 µM.
In turn, `CCc1cccc(C(=O)Nc2cn3cc(C4CCOCC4)nc3cn2)n1` [Example 438, 6-ethyl-N-(2-(tetrahydro-2H-pyran-4-yl)imidazo[1,2-a]pyrazin-6-yl)picolinamide] yielded an IC50 of 0.007 µM.
The compound `COc1nc(NC(=O)c2coc(C(F)F)n2)cn2cc(C34COC(C)(C3)C4)nc12` [Example 439, 2-(difluoromethyl)-N-(8-methoxy-2-(1-methyl-2-oxabicyclo[2.1.1]hexan-4-yl)imidazo[1,2-a]pyrazin-6-yl)oxazole-4-carboxamide] yielded an IC50 of 0.063 µM.
`CCOc1nc(C(=O)Nc2cn3cc(C45COC(C)(C4)C5)nc3c(OC)n2)co1` [Example 440, 2-ethoxy-N-(8-methoxy-2-(1-methyl-2-oxabicyclo[2.1.1]hexan-4-yl)imidazo[1,2-a]pyrazin-6-yl)oxazole-4-carboxamide]: half-maximal inhibition (IC50) was put at 0.047 µM.
`COc1nc(NC(=O)c2ccn(C)n2)cn2cc(C34COC(C)(C3)C4)nc12` [Example 441, N-(8-methoxy-2-(1-methyl-2-oxabicyclo[2.1.1]hexan-4-yl)imidazo[1,2-a]pyrazin-6-yl)-1-methyl-1H-pyrazole-3-carboxamide]: the 50% inhibitory concentration (IC50) was 0.118 µM.
The value for `COc1nc(NC(=O)c2cccc3ccnn23)cn2cc(C34COC(C)(C3)C4)nc12` [Example 442, N-(8-methoxy-2-(1-methyl-2-oxabicyclo[2.1.1]hexan-4-yl)imidazo[1,2-a]pyrazin-6-yl)pyrazolo[1,5-a]pyridine-7-carboxamide] was 0.024 µM; that for `COc1ccccc1C(=O)Nc1cn2cc(C34COC(C)(C3)C4)nc2c(OC)n1` [Example 443, 2-methoxy-N-(8-methoxy-2-(1-methyl-2-oxabicyclo[2.1.1]hexan-4-yl)imidazo[1,2-a]pyrazin-6-yl)benzamide] was 0.023 µM; that for `COc1nc(NC(=O)c2cccc(C)c2F)cn2cc(C34COC(C)(C3)C4)nc12` [Example 444, 2-fluoro-N-(8-methoxy-2-(1-methyl-2-oxabicyclo[2.1.1]hexan-4-yl)imidazo[1,2-a]pyrazin-6-yl)-3-methylbenzamide] was 0.039 µM.
For the compound `COc1nc(NC(=O)c2cccc3c2OCC3)cn2cc(C34COC(C)(C3)C4)nc12` [Example 445, N-(8-methoxy-2-(1-methyl-2-oxabicyclo[2.1.1]hexan-4-yl)imidazo[1,2-a]pyrazin-6-yl)-2,3-dihydrobenzofuran-7-carboxamide 2,2,2-trifluoroacetate], the concentration for half-maximal inhibition (IC50) came to 0.012 µM.
`COc1nc(NC(=O)c2cccc3c2OCC3(F)F)cn2cc(C34COC(C)(C3)C4)nc12` [Example 446, 3,3-difluoro-N-(8-methoxy-2-(1-methyl-2-oxabicyclo[2.1.1]hexan-4-yl)imidazo[1,2-a]pyrazin-6-yl)-2,3-dihydrobenzofuran-7-carboxamide]: the half-inhibitory concentration (IC50) is 0.008 µM.
With `COc1ncccc1C(=O)Nc1cn2cc(C34COC(C)(C3)C4)nc2c(OC)n1` [Example 447, 2-methoxy-N-(8-methoxy-2-(1-methyl-2-oxabicyclo[2.1.1]hexan-4-yl)imidazo[1,2-a]pyrazin-6-yl)nicotinamide 2,2,2-trifluoroacetate], the IC50 was determined as 0.015 µM. Against the preceding compound, the IC50 is about 1.9-fold higher.
With `COc1cccc(C(=O)Nc2cn3cc(C45COC(C)(C4)C5)nc3c(OC)n2)n1` [Example 448, 6-methoxy-N-(8-methoxy-2-(1-methyl-2-oxabicyclo[2.1.1]hexan-4-yl)imidazo[1,2-a]pyrazin-6-yl)picolinamide 2,2,2-trifluoroacetate], the IC50 came to 0.023 µM.
`COc1nc(NC(=O)c2cccc(C(F)(F)F)n2)cn2cc(C34COC(C)(C3)C4)nc12` [Example 449, N-(8-methoxy-2-(1-methyl-2-oxabicyclo[2.1.1]hexan-4-yl)imidazo[1,2-a]pyrazin-6-yl)-6-(trifluoromethyl)picolinamide 2,2,2-trifluoroacetate] returned a 50% inhibitory concentration (IC50) of 0.064 µM.
For the compound `COc1nc(NC(=O)c2cccc3c2OCC3(F)F)cn2cc(C3CCOCC3)nc12` [Example 454, 3,3-difluoro-N-(8-methoxy-2-(tetrahydro-2H-pyran-4-yl)imidazo[1,2-a]pyrazin-6-yl)-2,3-dihydrobenzofuran-7-carboxamide], 0.014 µM corresponded to half-maximal inhibition (IC50).
In turn, `COc1nc(NC(=O)c2cccc(C)n2)cn2cc(C3CCOCC3)nc12` [Example 455, N-(8-methoxy-2-(tetrahydro-2H-pyran-4-yl)imidazo[1,2-a]pyrazin-6-yl)-6-methylpicolinamide] returned an IC50 of 0.043 µM.
The compound `COc1nc(NC(=O)c2cccc(C(C)C)n2)cn2cc(C3CCOCC3)nc12` [Example 456, 6-isopropyl-N-(8-methoxy-2-(tetrahydro-2H-pyran-4-yl)imidazo[1,2-a]pyrazin-6-yl)picolinamide] had a 50% inhibitory concentration (IC50) of 0.014 µM.
`COc1ccccc1C(=O)Nc1cn2cc(C3CCOCC3)nc2c(OC)n1` [Example 457, 2-methoxy-N-(8-methoxy-2-(tetrahydro-2H-pyran-4-yl)imidazo[1,2-a]pyrazin-6-yl)benzamide 2,2,2-trifluoroacetate] returned an IC50 of 0.096 µM.

What is called IC50 is the concentration at which inhibition is half-maximal.
